In ChEMBL document CHEMBL1156588, “Structure-activity relationships of chiral selective norepinephrine reuptake inhibitors (sNRI) with increased oxidative stability” (Bioorg Med Chem Lett, 2008):

Assay: in vitro
Conditions: human, liver microsomes

Row | Structure (SMILES) | CLint scaled at 1 h, 1 µM [mL/min/kg]
1 | CNC[C@@H]1OCc2ccccc2[C@@H]1Oc1c(C)cccc1F | ≤ 3
2 | CNC[C@@H]1OCc2ccccc2[C@@H]1Oc1c(F)cccc1C(F)(F)F | ≤ 3
3 | CNCC[C@@H](Oc1ccccc1C)c1ccccc1 [ATOMOXETINE] | 50
4 | CNC[C@@H]1OCc2ccccc2[C@@H]1Oc1ccc(O)cc1C | 4
5 | CCc1ccccc1O[C@H]1c2ccccc2OC[C@H]1CNC | ≤ 3

More lines, now with the values ahead:

Row | CLint scaled at 1 h, 1 µM [mL/min/kg] | Structure (SMILES)
6 | 9 | CNC[C@@H]1COc2ccccc2[C@@H]1Oc1ccccc1Cl
7 | 10 | CNC[C@@H]1OCc2ccccc2[C@@H]1Oc1ccccc1C(F)(F)F
8 | 8 | CNC[C@@H]1OCc2ccccc2[C@@H]1Oc1ccccc1Cl
9 | 21 | CNC[C@@H]1OCc2ccccc2[C@@H]1Oc1cccc(F)c1C

Assay: Terminal half life in human
Type: ADME, organism-based
Conditions: in vivo

Row | half-life [h] | Structure (SMILES)
10 | 3 | CNCC[C@@H](Oc1ccccc1C)c1ccccc1 [ATOMOXETINE]
